Measurements: US9539275B2, “Melanogenesis effect of saponins of gynostemma pentaphyllum” (Hong Kong Baptist University, priority 2014, dated 2017)

How the values were obtained:
Format in all cases: cell-based, Mouse
B16 cells [1] = assay: Measurement of cellular melanin contents in B16 cells; settings: 5 μM H89 with GpS 50-150 μg/ml, 48 hours
Method: (§1) Cells were seeded in a 60 mm dish (2×10^5 cells/dish) and allowed to adhere at 37° C. for 24 hours. After adding test samples, cells were incubated for 48 hours and then washed with PBS and lysed in 120 μl of 1 M NaOH followed by 10 minutes of heating at 100° C. to solubilize the melanin. Each lysate (100 μl) was added into a well of a 96-well microplate, and the absorbance was determined at 475 nm with a microplate spectrophotometer (BD Bioscience, USA). The protein concentration of each sample was determined by DC Protein Assay (BIO-RAD, USA). Each experiment was repeated three times. The intracellular melanin amount/protein amount was shown as percentage values. Each percentage value of the drug-treated cells was calculated with respect to that of control cells.

CREB [2] = assay: Western blotting of p-CREB and CREB in B16 cells; settings: 5 μM H89 in GpS-treated cells
Method: (§2) Cells were collected and total protein lysates were extracted with RIPA lysis buffer [50 mM Tris-Cl, 1% v/v NP-40, 0.35% w/v sodium-deoxycholate, 150 mM NaCl, 1 mM EDTA, 1 mM EGTA, 1 mM phenylmethylsulfonyl fluoride (PMSF), 1 mM NaF, 1 mM Na3VO4, pH adjusted to 7.4] containing a protease inhibitor cocktail (Roche, Germany) for 30 minutes on ice. After centrifugation at 20,800×g for 15 minutes at 4° C., the supernatant was collected and regarded as total cell lysates.
(§3) Protein concentration was determined by DC Protein Assay (Bio Rad, USA). A standard curve was created by bovine serum albumin (BSA) concentration 0, 0.375, 0.75 and 1.5 μg/μl for the determination of the absolute protein concentration. Then, the mixture of reagent A and reagent S (50:1) was mixed with 5 μl of protein lysate. Then 200 μl of reagent B were added and mixed with 10 minutes incubation at room temperature. Finally, the absorbance was determined at 700 nm with a microplate spectrophotometer (BD Bioscience, USA). […]
(§4) Membranes were blocked for 30 minutes with 3% Bovine Serum Albumin in TBST buffer composed of 50 mM Tris (pH 7.6), 150 mM NaCl and 0.1% Tween-20 and incubated with the primary antibody overnight at 4° C. GADPH was used as loading control and was detected using an anti-GADPH polyclonal antibody (Santa cruz Biotechnology). […]

B16 cells [3] = assay: Colour of culture medium (extracellular melanin) and cell pellets, B16 cells
Method: (§5) The PKA signaling pathway is known to take part in regulating melanogenic events. […] To further investigate the involvement of the PKA pathway in the induction of the melanogenic effect of GpS in B16 and B6F10 cells, a PKA inhibitor, H89, is employed. […] Cells are treated with GpS in the presence or absence of H89 inhibitor. […] H89 treatment effectively lightens the color of the culture medium as well as the cell pellets.

B16 cells [4] = assay: MTT cell viability assay in B16 cells; settings: H89 up to 5 μM, 48 hours
Method: (§6) Cell viabilities were determined using the MTT assay. Briefly, cells were seeded in 96-well plates (1×10^3 cells/well) and allowed to adhere at 37° C. for 24 hours. Various concentrations of drugs were then added. After 48 hours incubation, 20 μl of MTT solution (2.5 mg/ml in PBS) was added to each well and cells were incubated at 37° C. for 4 hours. Following medium removal, 100 μl of DMSO were added to each well and the plates were gently shaken for 5 minutes. Optical absorbance was determined at 570 nm with a microplate spectrophotometer (BD Bioscience, USA). Absorbance of cells without treatment was regarded as 100% of cell survival. Each treatment was performed in triplicate and each experiment was repeated three times.

tyrosinase [5] = assay: Tyrosinase activity assay in B16 cells; settings: 5 μM H89 with GpS 50-150 μg/ml, 48 hours
Method: (§7) Cells were seeded in 96-well plates (3×10^3 cells/well) and allowed to adhere at 37° C. for 24 hours. Test samples were then added to individual wells. After 48 hours incubation, cells were washed with ice-cold PBS and 100 μl of 0.1% Triton X-100 lysis buffer were added into each well and lysed at −80° C. for 30 minutes. After freezing and thawing, 100 μl of freshly prepared substrate solution (0.1% L-DOPA) were added into a well on a 96-well plate. Following 2 hours incubation, the absorbance was determined at 475 nm with a microplate spectrophotometer (BD Bioscience, USA). Each percentage value of the drug-treated cells was calculated with respect to that of control cells. Each treatment was repeated three times.

B16F10 cells [6] = assay: MTT cell viability assay in B16F10 cells; settings: H89 up to 5 μM, 48 hours
Method: as §6

B16F10 cells [7] = assay: Measurement of cellular melanin contents in B16F10 cells; settings: 5 μM H89 with GpS 50-100 μg/ml, 48 hours
Method: as §1

CREB [8] = assay: Western blotting of p-CREB and CREB in B16F10 cells; settings: 5 μM H89 in GpS-treated cells
Method: as §2, §3, §4

B16F10 cells [9] = assay: Colour of culture medium (extracellular melanin) and cell pellets, B16F10 cells
Method: as §5

tyrosinase [10] = assay: Tyrosinase activity assay in B16F10 cells; settings: 5 μM H89 with GpS 50-100 μg/ml, 48 hours
Method: as §7

[11] = co-treated with 5 μM H89 and GpS, compared with GpS-treated cells

For `O=S(=O)(NCCNC/C=C/c1ccc(Br)cc1)c1cccc2cnccc12` [H89], the “GpS-induced increment of melanin content” value (B16 cells [1]) was “significantly attenuated”, the “GpS-induced p-CREB expression” value (CREB [2]) was “significantly attenuates” and the “total CREB expression” value (CREB [2]) was “without significant influence”. For the same compound, the “colour of cell pellets” value (B16 cells [3]; [11]) was “lighter in color”, the “secretion of melanin induced by GpS” value (B16 cells [3]; co-treatment with H89) was “attenuated” and the “cytotoxicity (MTT)” value (B16 cells [4]) was “no cytotoxicity”. For the same compound, the “GpS-induced increment of cellular tyrosinase activity” value (tyrosinase [5]) was “significantly attenuated”, the “cytotoxicity (MTT)” value (B16F10 cells [6]) was “no cytotoxicity” and the “GpS-induced increment of melanin content” value (B16F10 cells [7]) was “significantly attenuated”. For the same compound, the “GpS-induced p-CREB expression” value (CREB [8]) was “significantly attenuates”, the “total CREB expression” value (CREB [8]) was “without significant influence” and the “colour of cell pellets” value (B16F10 cells [9]; [11]) was “lighter in color”. For the same compound, the “secretion of melanin induced by GpS” value (B16F10 cells [9]; co-treatment with H89) was “attenuated” and the “GpS-induced increment of cellular tyrosinase activity” value (tyrosinase [10]) was “significantly attenuated”.
